# Measured values published in the kinase profiling compilation of Christmann-Franck et al. (2016).
# Experiments:
# Assay in all cases: radiometric filter-binding kinase assay
# INSRR (human) = INSRR (human) (UniProt P14616)
# PIM3 (human) = PIM3 (human) (UniProt Q86V86)
# BRSK2 (human) = BRSK2 (human) (UniProt Q8IWQ3)
# SYK (human) = SYK (human) (UniProt P43405)
# RPS6KA3 KD1 KD2 (human) = RPS6KA3 KD1 KD2 (human) (UniProt P51812)
# [1] = test system: RPS6KB1 (human), P23443 [T412E]
# CLK2 (human) = CLK2 (human) (UniProt P49760)
# TTK (human) = TTK (human) (UniProt P33981)
# Chain of TTK (human) (P33981 whole entry, looked up): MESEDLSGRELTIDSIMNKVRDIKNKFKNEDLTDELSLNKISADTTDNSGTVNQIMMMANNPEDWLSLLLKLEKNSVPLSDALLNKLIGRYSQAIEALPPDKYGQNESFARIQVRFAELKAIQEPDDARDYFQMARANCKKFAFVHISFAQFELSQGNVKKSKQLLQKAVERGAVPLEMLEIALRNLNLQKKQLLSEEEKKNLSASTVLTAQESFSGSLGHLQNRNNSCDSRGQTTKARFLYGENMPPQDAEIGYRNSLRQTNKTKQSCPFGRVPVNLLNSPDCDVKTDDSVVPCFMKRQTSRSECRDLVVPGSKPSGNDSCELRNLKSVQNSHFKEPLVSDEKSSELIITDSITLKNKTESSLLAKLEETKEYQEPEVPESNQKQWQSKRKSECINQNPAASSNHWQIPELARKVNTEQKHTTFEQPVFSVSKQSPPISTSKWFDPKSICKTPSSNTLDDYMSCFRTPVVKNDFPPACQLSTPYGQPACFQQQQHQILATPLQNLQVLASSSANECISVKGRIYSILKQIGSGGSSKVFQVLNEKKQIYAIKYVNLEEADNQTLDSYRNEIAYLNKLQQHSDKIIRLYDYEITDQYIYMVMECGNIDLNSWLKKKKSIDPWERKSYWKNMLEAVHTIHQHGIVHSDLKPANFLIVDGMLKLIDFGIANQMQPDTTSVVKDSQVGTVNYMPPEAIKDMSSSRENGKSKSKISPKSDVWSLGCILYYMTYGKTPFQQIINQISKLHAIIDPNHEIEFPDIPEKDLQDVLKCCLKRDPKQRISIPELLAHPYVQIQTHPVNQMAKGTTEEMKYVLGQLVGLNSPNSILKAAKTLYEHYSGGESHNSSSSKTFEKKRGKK
# [2] = test system: SGK1 (human), O00141 [S422D]
# BRSK1 (human) = BRSK1 (human) (UniProt Q8TDC3)
# EPHA4 (human) = EPHA4 (human) (UniProt P54764)
# MARK4 (human) = MARK4 (human) (UniProt Q96L34)
# JAK2 JH1 JH2 (human) = JAK2 JH1 JH2 (human) (UniProt O60674)
# MAPK12 (human) = MAPK12 (human) (UniProt P53778)
# Chain of MAPK12 (human) (P53778 whole entry, looked up): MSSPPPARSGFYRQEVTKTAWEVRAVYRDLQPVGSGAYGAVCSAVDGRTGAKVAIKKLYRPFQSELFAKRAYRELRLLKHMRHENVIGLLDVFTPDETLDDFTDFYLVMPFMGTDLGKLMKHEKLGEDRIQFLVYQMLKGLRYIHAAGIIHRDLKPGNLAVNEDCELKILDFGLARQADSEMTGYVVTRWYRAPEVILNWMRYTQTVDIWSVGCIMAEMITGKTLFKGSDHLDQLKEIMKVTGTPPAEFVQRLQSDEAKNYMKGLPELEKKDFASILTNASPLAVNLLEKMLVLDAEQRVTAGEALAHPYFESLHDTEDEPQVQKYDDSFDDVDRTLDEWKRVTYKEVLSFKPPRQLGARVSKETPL
# MELK (human) = MELK (human) (UniProt Q14680)
# CSNK1D (human) = CSNK1D (human) (UniProt P48730)
# Chain of CSNK1D (human) (P48730 whole entry, looked up): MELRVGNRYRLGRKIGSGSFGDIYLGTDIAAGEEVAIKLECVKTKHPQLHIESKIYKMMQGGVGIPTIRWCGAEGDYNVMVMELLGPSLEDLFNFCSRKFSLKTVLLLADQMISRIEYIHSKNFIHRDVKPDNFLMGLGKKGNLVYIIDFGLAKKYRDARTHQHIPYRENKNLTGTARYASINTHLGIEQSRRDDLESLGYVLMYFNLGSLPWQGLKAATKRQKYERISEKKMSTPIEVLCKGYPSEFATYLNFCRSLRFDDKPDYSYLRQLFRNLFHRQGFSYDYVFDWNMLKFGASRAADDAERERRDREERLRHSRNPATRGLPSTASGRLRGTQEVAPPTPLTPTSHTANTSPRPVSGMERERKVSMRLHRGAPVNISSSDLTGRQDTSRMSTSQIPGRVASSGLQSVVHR
# IRAK4 (human) = IRAK4 (human) (UniProt Q9NWZ3)
# Chain of IRAK4 (human) (Q9NWZ3 whole entry, looked up): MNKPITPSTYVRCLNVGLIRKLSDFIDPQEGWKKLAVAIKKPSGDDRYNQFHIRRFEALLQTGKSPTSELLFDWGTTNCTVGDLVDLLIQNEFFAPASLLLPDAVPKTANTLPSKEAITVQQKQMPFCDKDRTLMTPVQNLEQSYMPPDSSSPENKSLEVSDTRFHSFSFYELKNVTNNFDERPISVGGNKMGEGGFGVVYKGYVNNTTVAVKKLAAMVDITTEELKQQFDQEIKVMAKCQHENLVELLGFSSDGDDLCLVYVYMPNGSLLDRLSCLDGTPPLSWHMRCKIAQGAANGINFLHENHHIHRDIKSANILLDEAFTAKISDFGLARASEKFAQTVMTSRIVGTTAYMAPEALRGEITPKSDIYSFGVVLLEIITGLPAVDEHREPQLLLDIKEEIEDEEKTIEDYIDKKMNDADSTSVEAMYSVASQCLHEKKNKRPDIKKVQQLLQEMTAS
# CSK (human) = CSK (human) (UniProt P41240)
# INSR (human) = INSR (human) (UniProt P06213)
# PIM1 (human) = PIM1 (human) (UniProt P11309)
# Chain of PIM1 (human) (P11309 whole entry, looked up): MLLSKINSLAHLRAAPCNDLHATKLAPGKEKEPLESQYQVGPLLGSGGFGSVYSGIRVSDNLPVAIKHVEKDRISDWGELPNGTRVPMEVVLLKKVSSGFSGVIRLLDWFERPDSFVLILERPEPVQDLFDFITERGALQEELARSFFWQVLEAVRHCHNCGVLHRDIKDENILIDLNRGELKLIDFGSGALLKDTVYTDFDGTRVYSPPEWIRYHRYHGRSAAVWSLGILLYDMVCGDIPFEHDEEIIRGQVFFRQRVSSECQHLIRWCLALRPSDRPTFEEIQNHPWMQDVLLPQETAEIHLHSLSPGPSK
# MAPKAPK3 (human) = MAPKAPK3 (human) (UniProt Q16644)
# FGFR1 (human) = FGFR1 (human) (UniProt P11362)
# FLT1 (human) = FLT1 (human) (UniProt P17948)
# RIPK2 (human) = RIPK2 (human) (UniProt O43353)
# CDK2 CCNA2 (human) = CDK2 CCNA2 (human) (UniProt P20248+P24941)
# TBK1 (human) = TBK1 (human) (UniProt Q9UHD2)
# MAP3K7 TAB1 (human) = MAP3K7 TAB1 (human) (UniProt Q15750+O43318)
# AURKA (human) = AURKA (human) (UniProt O14965)
# MYLK (human) = MYLK (human) (UniProt Q15746)
# MAPK8 (human) = MAPK8 (human) (UniProt P45983)
# Chain of MAPK8 (human) (P45983 whole entry, looked up): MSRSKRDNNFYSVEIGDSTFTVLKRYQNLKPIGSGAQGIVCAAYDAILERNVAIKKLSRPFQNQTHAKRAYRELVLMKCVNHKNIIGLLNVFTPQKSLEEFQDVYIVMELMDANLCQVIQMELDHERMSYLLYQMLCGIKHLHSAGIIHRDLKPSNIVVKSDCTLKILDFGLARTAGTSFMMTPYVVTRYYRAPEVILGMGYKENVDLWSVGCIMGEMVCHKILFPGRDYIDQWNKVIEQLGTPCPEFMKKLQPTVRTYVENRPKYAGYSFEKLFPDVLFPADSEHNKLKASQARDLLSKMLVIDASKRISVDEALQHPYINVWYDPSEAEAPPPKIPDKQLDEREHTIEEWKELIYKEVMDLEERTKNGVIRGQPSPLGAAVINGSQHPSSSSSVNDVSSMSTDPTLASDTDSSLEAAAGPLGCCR
# [3] = test system: PAK2 (human), Q13177 [T402E]
# Chain of PAK2 (human), Q13177 [T402E] (Q13177 whole entry T402E, looked up): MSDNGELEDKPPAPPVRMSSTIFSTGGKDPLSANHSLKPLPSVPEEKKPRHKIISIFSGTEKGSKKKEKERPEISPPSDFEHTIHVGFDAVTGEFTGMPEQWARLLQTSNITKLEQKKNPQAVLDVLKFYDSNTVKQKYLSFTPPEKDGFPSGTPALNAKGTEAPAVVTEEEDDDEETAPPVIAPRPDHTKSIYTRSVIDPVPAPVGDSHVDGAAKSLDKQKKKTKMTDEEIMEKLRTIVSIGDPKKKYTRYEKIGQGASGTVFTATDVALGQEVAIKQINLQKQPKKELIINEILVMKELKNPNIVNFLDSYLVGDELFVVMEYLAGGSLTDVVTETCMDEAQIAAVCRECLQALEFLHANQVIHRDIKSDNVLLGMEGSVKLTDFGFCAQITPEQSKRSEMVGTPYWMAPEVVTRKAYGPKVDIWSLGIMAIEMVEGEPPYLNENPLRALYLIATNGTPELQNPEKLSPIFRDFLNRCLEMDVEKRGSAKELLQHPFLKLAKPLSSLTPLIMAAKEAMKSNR
# MAP3K11 (human) = MAP3K11 (human) (UniProt Q16584)
# PLK1 (human) = PLK1 (human) (UniProt P53350)
# EPHB2 (human) = EPHB2 (human) (UniProt P29323)
# MAP2K2 (human) = MAP2K2 (human) (UniProt P36507)
# Chain of INSRR (human) (P14616 whole entry, looked up): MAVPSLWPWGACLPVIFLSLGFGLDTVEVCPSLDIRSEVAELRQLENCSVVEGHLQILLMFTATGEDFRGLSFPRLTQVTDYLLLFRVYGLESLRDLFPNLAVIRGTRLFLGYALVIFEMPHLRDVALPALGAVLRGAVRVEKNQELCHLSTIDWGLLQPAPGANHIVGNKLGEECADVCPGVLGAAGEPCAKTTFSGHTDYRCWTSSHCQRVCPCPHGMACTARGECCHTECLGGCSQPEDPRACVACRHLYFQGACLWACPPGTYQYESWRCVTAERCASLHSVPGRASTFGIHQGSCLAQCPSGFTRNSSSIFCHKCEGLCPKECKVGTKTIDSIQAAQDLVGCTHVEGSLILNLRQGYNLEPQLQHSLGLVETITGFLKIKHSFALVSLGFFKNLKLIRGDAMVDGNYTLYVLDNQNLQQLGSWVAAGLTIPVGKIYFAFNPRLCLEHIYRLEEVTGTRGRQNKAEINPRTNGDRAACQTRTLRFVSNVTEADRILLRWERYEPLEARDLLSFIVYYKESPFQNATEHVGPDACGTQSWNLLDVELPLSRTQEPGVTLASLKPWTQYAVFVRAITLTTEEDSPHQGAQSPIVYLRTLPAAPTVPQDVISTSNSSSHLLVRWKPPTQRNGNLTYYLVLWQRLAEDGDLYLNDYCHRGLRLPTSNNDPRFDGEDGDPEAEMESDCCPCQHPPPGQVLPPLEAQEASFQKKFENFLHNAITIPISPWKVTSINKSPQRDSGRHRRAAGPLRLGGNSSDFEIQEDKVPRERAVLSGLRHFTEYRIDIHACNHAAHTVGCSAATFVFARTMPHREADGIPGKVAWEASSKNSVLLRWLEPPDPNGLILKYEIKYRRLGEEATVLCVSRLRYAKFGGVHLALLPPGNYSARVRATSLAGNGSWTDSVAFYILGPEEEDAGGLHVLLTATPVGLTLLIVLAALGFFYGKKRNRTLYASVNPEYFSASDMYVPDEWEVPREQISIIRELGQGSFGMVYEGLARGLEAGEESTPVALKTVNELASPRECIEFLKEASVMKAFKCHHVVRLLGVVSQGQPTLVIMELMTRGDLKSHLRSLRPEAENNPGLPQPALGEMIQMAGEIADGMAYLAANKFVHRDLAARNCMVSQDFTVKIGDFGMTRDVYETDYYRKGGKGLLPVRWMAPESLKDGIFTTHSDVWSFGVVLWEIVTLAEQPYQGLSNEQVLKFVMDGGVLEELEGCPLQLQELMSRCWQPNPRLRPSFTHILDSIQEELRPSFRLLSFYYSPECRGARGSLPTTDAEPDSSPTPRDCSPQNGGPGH
smiles,measurement,setting,value
O=C(Nc1nc2cc(C(F)(F)F)cc(NC3CC3)n2n1)c1cccnc1,residual activity,INSRR (human); compound 0.01 µM,91%
same,residual activity,INSRR (human); compound 0.1 µM,104%
same,residual activity,INSRR (human); compound 1.0 µM,94%
same,residual activity,PIM3 (human); compound 0.01 µM,104%
same,residual activity,PIM3 (human); compound 0.1 µM,101%
same,residual activity,PIM3 (human); compound 1.0 µM,95%
same,residual activity,BRSK2 (human); compound 0.01 µM,116%
same,residual activity,BRSK2 (human); compound 0.1 µM,116%
same,residual activity,BRSK2 (human); compound 1.0 µM,109%
same,residual activity,SYK (human); compound 0.01 µM,107%
same,residual activity,SYK (human); compound 0.1 µM,99%
same,residual activity,RPS6KA3 KD1 KD2 (human); compound 0.01 µM,112%
same,residual activity,RPS6KA3 KD1 KD2 (human); compound 0.1 µM,106%
same,residual activity,RPS6KA3 KD1 KD2 (human); compound 1.0 µM,89%
same,residual activity,[1]; compound 0.01 µM,125%
same,residual activity,[1]; compound 0.1 µM,104%
same,residual activity,[1]; compound 1.0 µM,103%
same,residual activity,CLK2 (human); compound 0.01 µM,101%
same,residual activity,CLK2 (human); compound 0.1 µM,82%
same,residual activity,CLK2 (human); compound 1.0 µM,40%
same,residual activity,TTK (human); compound 0.01 µM,93%
same,residual activity,TTK (human); compound 0.1 µM,99%
same,residual activity,TTK (human); compound 1.0 µM,96%
same,residual activity,[2]; compound 0.01 µM,103%
same,residual activity,[2]; compound 1.0 µM,100%
same,residual activity,BRSK1 (human); compound 0.01 µM,102%
same,residual activity,BRSK1 (human); compound 0.1 µM,90%
same,residual activity,BRSK1 (human); compound 1.0 µM,95%
same,residual activity,EPHA4 (human); compound 0.01 µM,101%
same,residual activity,EPHA4 (human); compound 0.1 µM,124%
same,residual activity,EPHA4 (human); compound 1.0 µM,93%
same,residual activity,MARK4 (human); compound 0.01 µM,127%
same,residual activity,MARK4 (human); compound 0.1 µM,111%
same,residual activity,MARK4 (human); compound 1.0 µM,119%
same,residual activity,JAK2 JH1 JH2 (human); compound 0.01 µM,114%
same,residual activity,JAK2 JH1 JH2 (human); compound 0.1 µM,100%
same,residual activity,JAK2 JH1 JH2 (human); compound 1.0 µM,100%
same,residual activity,MAPK12 (human); compound 0.01 µM,71%
same,residual activity,MAPK12 (human); compound 0.1 µM,102%
same,residual activity,MAPK12 (human); compound 1.0 µM,80%
same,residual activity,MELK (human); compound 0.01 µM,97%
same,residual activity,MELK (human); compound 0.1 µM,107%
same,residual activity,MELK (human); compound 1.0 µM,92%
same,residual activity,CSNK1D (human); compound 0.01 µM,92%
same,residual activity,CSNK1D (human); compound 0.1 µM,93%
same,residual activity,CSNK1D (human); compound 1.0 µM,59%
same,residual activity,IRAK4 (human); compound 0.01 µM,90%
same,residual activity,IRAK4 (human); compound 0.1 µM,90%
same,residual activity,IRAK4 (human); compound 1.0 µM,83%
same,residual activity,CSK (human); compound 0.01 µM,96%
same,residual activity,CSK (human); compound 0.1 µM,95%
same,residual activity,CSK (human); compound 1.0 µM,89%
same,residual activity,INSR (human); compound 0.01 µM,107%
same,residual activity,INSR (human); compound 1.0 µM,100%
same,residual activity,PIM1 (human); compound 0.01 µM,104%
same,residual activity,PIM1 (human); compound 0.1 µM,96%
same,residual activity,PIM1 (human); compound 1.0 µM,98%
same,residual activity,MAPKAPK3 (human); compound 0.01 µM,97%
same,residual activity,MAPKAPK3 (human); compound 0.1 µM,114%
same,residual activity,MAPKAPK3 (human); compound 1.0 µM,97%
same,residual activity,FGFR1 (human); compound 0.01 µM,111%
same,residual activity,FGFR1 (human); compound 0.1 µM,105%
same,residual activity,FGFR1 (human); compound 1.0 µM,101%
same,residual activity,FLT1 (human); compound 0.01 µM,109%
same,residual activity,FLT1 (human); compound 0.1 µM,88%
same,residual activity,FLT1 (human); compound 1.0 µM,108%
same,residual activity,RIPK2 (human); compound 0.01 µM,89%
same,residual activity,RIPK2 (human); compound 0.1 µM,87%
same,residual activity,RIPK2 (human); compound 1.0 µM,89%
same,residual activity,CDK2 CCNA2 (human); compound 0.01 µM,95%
same,residual activity,CDK2 CCNA2 (human); compound 0.1 µM,98%
same,residual activity,CDK2 CCNA2 (human); compound 1.0 µM,85%
same,residual activity,TBK1 (human); compound 0.01 µM,99%
same,residual activity,TBK1 (human); compound 0.1 µM,101%
same,residual activity,TBK1 (human); compound 1.0 µM,102%
same,residual activity,MAP3K7 TAB1 (human); compound 0.01 µM,92%
same,residual activity,MAP3K7 TAB1 (human); compound 1.0 µM,84%
same,residual activity,AURKA (human); compound 0.01 µM,108%
same,residual activity,AURKA (human); compound 0.1 µM,128%
same,residual activity,AURKA (human); compound 1.0 µM,96%
same,residual activity,MYLK (human); compound 0.01 µM,96%
same,residual activity,MYLK (human); compound 0.1 µM,93%
same,residual activity,MYLK (human); compound 1.0 µM,106%
same,residual activity,MAPK8 (human); compound 0.01 µM,87%
same,residual activity,MAPK8 (human); compound 0.1 µM,93%
same,residual activity,MAPK8 (human); compound 1.0 µM,91%
same,residual activity,[3]; compound 0.01 µM,110%
same,residual activity,[3]; compound 0.1 µM,126%
same,residual activity,[3]; compound 1.0 µM,104%
same,residual activity,MAP3K11 (human); compound 0.01 µM,88%
same,residual activity,MAP3K11 (human); compound 0.1 µM,104%
same,residual activity,MAP3K11 (human); compound 1.0 µM,87%
same,residual activity,PLK1 (human); compound 0.01 µM,104%
same,residual activity,PLK1 (human); compound 0.1 µM,128%
same,residual activity,PLK1 (human); compound 1.0 µM,103%
same,residual activity,EPHB2 (human); compound 0.1 µM,108%
same,residual activity,EPHB2 (human); compound 1.0 µM,95%
same,residual activity,MAP2K2 (human); compound 0.01 µM,90%
same,residual activity,MAP2K2 (human); compound 0.1 µM,90%
same,residual activity,MAP2K2 (human); compound 1.0 µM,69%
